We go through 2 compounds from US10201556B2, “Combination for use in treating diseases or conditions associated with melanoma, or treating diseases or conditions associated with activated B-raf pathway” (InteRNA Technologies B.V., priority 2012, dated 2019).

The subject of data set [1] is SKMEL-57 melanoma cell line. As to the kind of experiment: Anti-proliferative effect of small molecules, MTS assay. Format: cell-based. The settings on record: SKMEL-57, vemurafenib sensitive. On the procedure:
(§1) The anti-proliferative effect of small molecules in melanoma cell lines was determined with V600E BRAF inhibitor, vemurafenib (PLX-4032, 51267, Selleck) and MEK inhibitor, selumetinib (AZD-6244, S1008, Selleck). For each cell line optimal growth conditions were determined prior to the experiment. Cells were plated in a 96-well plate at 3000 cells per well (100 uL) and were grown at 37 C, 5% CO2. Small molecule mix (50 uL per well) was made for each concentration in medium. Cells were treated in triplicate 24 hours after plating. After 72 hours medium was replaced and viability was measured with the MTS assay (Promega) according to manufacturer's instructions. Cell viability inhibition is normalized against loading control (0.1% DMSO) and GraphPad Prism was used to fit the curve and calculate GI50 values.
(§2) A375 cells were obtained from the Hubrecht Institute (Utrecht, The Netherlands); SKMEL-28, A2058 and RPMI-7951 were from the ATCC; SKMEL-57 was a gift from Dr. Patricia Groenen (Radboud University Nijmegen Medical Centre, The Netherlands); for cell line characteristics of M249, M249-AR4, M233 and M376 see (Atefi et al. 2011). A375-R, with in vitro acquired resistance to vemurafenib, was established in our lab by clonal selection of cells continually exposed to 1 μM vemurafenib. A375, A375-R, SKMEL-28, A2058 and SKMEL-57 were grown in DMEM GlutaMAX™-I (Gibco®), all other cell lines in RPMI-1640 (Gibco®). Media was supplemented with 10% FBS (Sigma), and cells were maintained in a humidified 37° C. incubator (Thermo Scientific) with 5% CO2. Vemurafenib (PLX4032; Selleck Chemicals) was diluted in DMSO to a stock concentration of 10 mM.
In general terms: Formazan colour is commonly taken as a measure of viable cells.

The test system of the next data set is M233 melanoma cell line. The description is as above. It counts as cell-based. The settings on record: M233, vemurafenib resistant. On the procedure:
as §1, §2

A further data set deals with M376 melanoma cell line. The data set is described as above. It counts as cell-based. The settings on record: M376, in vivo acquired resistance. On the procedure:
as §1, §2

Data set [2] has as its system SKMEL-28 melanoma cell line. The data set is described as above. Format: cell-based. The settings on record: Homo sapiens, SK-MEL-28, SKMEL-28, vemurafenib sensitive. As for the experimental part:
as §1, §2

Data set [3] deals with A375Hu melanoma cell line. As to the kind of experiment: Anti-proliferative effect of miRNA mimics, MTS assay. Particulars: 10 nM mimic, 72 hours after transfection. Format: cell-based, human. As for the experimental part: (§3) The anti-proliferative effect of miRNA's in melanoma cell lines was determined with mature miRNA mimics from Ambion. For each cell line optimal growth and transfection conditions were determined prior to the experiment. Cells were plated in a 96-well plate at 3000 cells per well (100 uL) and were grown at 37 C, 5% CO2. Transfection mix (20 uL per well) was made for each miRNA mimic concentration with 0.3 uL (M249, M249-R4) or 0.5 uL (A375Hu, A375Hu-R1, A2058, RPMI-7951) X-TremeGene (Roche) per well (according to manufacturer's instructions) in Optimem (Invitrogen). Cells were transfected 24 hours after plating in triplicate. Medium was replaced 48 hours after transfection with fresh medium.

The subject of data set [4] is A375Hu-R1 melanoma cell line. The data set is described as above. The settings on record: 10 nM mimic, 72 hours after transfection. It counts as cell-based, human. On the procedure: as §3

For orientation: GI50 means the concentration at which growth is held to half of that of the control. A high value points to lower sensitivity of the cells.

Regarding `CCCS(=O)(=O)Nc1ccc(F)c(C(=O)c2c[nH]c3ncc(-c4ccc(Cl)cc4)cc23)c1F` [Vemurafenib, N-(3-{[5-(4-chlorophenyl)-1H-pyrrolo[2,3-b]pyridin-3-yl]carbonyl}-2,4-difluorophenyl)propane-1-sulfonamide], the GI50 in data set [1] is approximately 800 nM; in the data set on M233 melanoma cell line, more than 10000 nM; in the data set on M376 melanoma cell line it was more than 10000 nM; in data set [2], approximately 600 nM.

With “hsa-miR-3157-5p: mature miRNA mimic, SEQ ID NO 6 UUCAGCCAGGCUAGUGCAGUCU (listed as RNA, chemistry not given here)”, the “A375Hu % Viability 10 nM” value in data set [3] is 42%. Also, the “A375Hu-R1 % Viability 10 nM” value in data set [4] is 67%.
